According to PubChem BioAssay (NCI):
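Each compound was tested at five concentrations against cells in 96-well plates for 48 hours. TGI marks complete inhibition of growth.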

Legend:
Test in all cases: inhibition of tumour cell growth, NCI panel, 48 h
MDA-MB-231 breast = system: MDA-MB-231 breast
UACC-257 melanoma = system: UACC-257 melanoma
KM12 colon = system: KM12 colon
NCI-H226 lung = system: NCI-H226 lung
U251 CNS = system: U251 CNS
MDA-MB-435 = system: MDA-MB-435
SW-620 colon = system: SW-620 colon
A549 NSCLC = system: A549 NSCLC
RPMI-8226 leukemia = system: RPMI-8226 leukemia
BT-549 breast = system: BT-549 breast
OVCAR-3 ovarian = system: OVCAR-3 ovarian
HT29 colon = system: HT29 colon
SK-OV-3 ovarian = system: SK-OV-3 ovarian
HS 578T breast = system: HS 578T breast

Row | Compound | TGI (MDA-MB-231 breast) [µM] | TGI (UACC-257 melanoma) [µM] | TGI (KM12 colon) [µM] | TGI (NCI-H226 lung) [µM] | TGI (U251 CNS) [µM] | TGI (MDA-MB-435) [µM] | TGI (SW-620 colon) [µM] | TGI (A549 NSCLC) [µM] | TGI (RPMI-8226 leukemia) [µM] | TGI (BT-549 breast) [µM] | TGI (OVCAR-3 ovarian) [µM] | TGI (HT29 colon) [µM] | TGI (SK-OV-3 ovarian) [µM] | TGI (HS 578T breast) [µM]
1 | CSc1nc2c(c(=O)n1C)N=C(c1ccc([N+](=O)[O-])cc1)CC(c1ccccc1)N2 (stereo not drawn) | > 100 | > 100 | > 100 | > 100 | > 100 | > 100 | > 100 | > 100 | > 100 | > 100 | > 100 | > 100 | > 100 | –
2 | O=[N+]([O-])c1ccc(-n2nc3ccc4c(no[n+]4[O-])c3n2)cc1 | > 100 | > 100 | > 100 | > 100 | > 100 | > 100 | > 100 | > 100 | – | > 100 | > 100 | > 100 | > 100 | > 100
3 | Cc1ccc(C)n2c1nc1ccccc12 | – | > 100 | > 100 | > 100 | > 100 | > 100 | > 100 | > 100 | > 100 | > 100 | > 100 | > 100 | > 100 | > 100
4 | CC(C)CC(N)C(=O)Nc1ccc2ccccc2c1 (stereo not drawn) | > 100 | > 100 | > 100 | > 100 | > 100 | – | > 100 | > 100 | > 100 | > 100 | > 100 | > 100 | > 100 | > 100
5 | CC(=O)OCC(=O)OC[C@H](OCc1ccccc1)[C@@H]1[C@H](OC(C)=O)C(=O)N1Cc1ccccc1 | > 100 | > 100 | > 100 | > 100 | > 100 | > 100 | > 100 | > 100 | > 100 | – | > 100 | > 100 | > 100 | > 100
6 | CCc1ccc(COC(=O)C2=C(C)NC(C)=C(C(=O)OCc3ccc(CC)cn3)C2C2=COCCO2)nc1 | 45.8 | 41.5 | 87.1 | 40 | 35.4 | 38.3 | 80.4 | > 100 | – | 31.1 | 54.7 | 43.7 | 45.8 | 37.7
7 | C=C(C(=O)OC)[C@@H]1C[C@@H](OC(C)=O)C2=C[C@H](C[C@@]3(C)O[C@@H]3C3=CC(C)=C(O3)[C@H]1OC(C)=O)OC2=O | 44.1 | 44.3 | 43.7 | > 100 | 71.1 | 37.9 | 28.4 | > 100 | 21.4 | 31.3 | – | 76.9 | > 100 | –
8 | O=C(CSCC(=O)N/N=C\c1cccc([N+](=O)[O-])c1)N/N=C\c1cccc([N+](=O)[O-])c1 | 53.8 | > 100 | > 100 | > 100 | 32.4 | > 100 | > 100 | > 100 | > 100 | – | 84.1 | > 100 | > 100 | > 100
